Laboratory results taken from patent publication US20090317419A1, “Tetramers” (Duke University, priority 2008, published 2009).
Where two headings read alike, the source gives them in different places. Marks after values point to notes of the source that are not given here. Ends that are not written are not given here. * marks the point of attachment. Biotin = O=C1N[C@H]2[C@H](CS[C@H]2CCCCC(=O)*)N1

Legend:
[1] = system: B cell subsets from naive C57BL/6 mice
Description: (§1) Cell isolation, serum collection, and PBMC isolations. Heparinized or non-heparanized blood was collected sub-mandibularly 10 days after immunizations. For preparation of peripheral blood lymphocytes for B cell tetramer analysis, PBMC were isolated from blood collected in heparinized tubes (0.2 ml) using Lympholyte M (Cederlane). For Luminex and ELISA assays, sera was isolated from non-heparanized blood and stored at −20° C. until use. Spleen, bone marrow (BM), and peritoneal cavity (PerC) cells were also collected. For most immunizations, tissues were harvested after the 4th boost, except for kinetic studies, in which tissues from mice were harvested after 1, 3 or 7 days after a single immunization. For BM preparations, femora and tibiae were removed, aspirated with tissue medium using 23 gauge needles, filtered with 70 μm cell strainers (BD labware), and RBC-depleted using Tris-buffered ammonium chloride lysis. For splenocyte preparation, spleens were harvested and dissociated into single-cell suspensions either by passage through 70 μm cell strainers in tissue medium or by using frosted glass slides, and blood erythrocytes were depleted with ammonium chloride lysis. For isolation of peritoneal cells, peritoneal cavities of sacrificed mice were lavaged by injection with 10 ml of PBS, followed by gentle massage of the abdomen, and withdrawal of the peritoneal exudates. BM, splenic, and peritoneal single cell suspensions were centrifuged at 1500 rpm for 5 min and resuspended in 5, 10, and 1 ml of tissue media, respectively, for cell counts and immunofluorescence staining. Cell counts were performed in duplicate on a Coulter ZI Dual Threshold Cell Counter (Coulter).
(§2) Antibodies and flow cytometry. Immunofluorescent staining of single cell suspensions (≧2×10^6) was conducted using pre-mixed combinations of fluorochrome-labeled antibodies and APC-conjugated B cell tetramers at empirically-determined optimal concentrations. All antibodies were from BD unless otherwise stated. […] Other reagents included biotinylated antibodies against dump channel markers: Thy1 (Ox7; Abcam), F4/80 (BM8; Abcam), CD11c (clone HL3), Gr-1 (clone RB6-8C5), TER-119, and NK-1.1 (clone PK136), secondary staining SA-Texas Red conjugate; v-amine live/dead violet dye (Molecular Probes), and Fc block (anti-CD16/32; clone 2.4G2).
(§3) Staining was conducted at 4° C. in several sequential steps in FACS staining buffer (1×PBS with 2% FCS, 0.1% NaN3), washing twice between steps. First, cells were incubated with v-amine live/dead dye for 15 min. Next, cells were stained with APC-labeled tetramers for 30 min. Where applicable, this was preceded by addition of cold tetramer at 10 fold molar excess for 1 h. Finally, cells were stained with Fc block for 30 min, followed by incubation with combinations of primary antibody cocktails for 30 min, and secondary staining with SA-Texas Red for 30 min.
(§4) Data were acquired using an LSRII flow cytometer and Cell Quest software (BD Immunocytometry systems). A minimum of 250000 events were acquired per sample. FACS Analysis was performed using FlowJo software (Tree Star). For analysis, single cells were positively gated based on their forward scatter height vs. forward scatter area and side scatter height vs. side scatter area profiles, lymphocytes were then positively gated based on their forward and side scatter profile (live lymphocyte gate), residual dead cells were excluded with negative gating on v-amine live/dead dye, and all irrelevant non-B cells were excluded with negative gating on dump markers Thy1, F4/80, CD11c, Gr-1, TER-119, and NK-1.1.
To examine if gp41 2F5 MPER epitope reactivity across B cell subsets mapped similarly on the IgH^b allotype, reactivity to gp41 2F5 MPER tetramers was measured by measuring the percentage of APC-labeled gp41 2F5 MPER tetramer-reactive cells in C57BL/6 bone marrow, splenic, and peritoneal B cell subsets (Table 10).

[2] = system: total naïve splenic C57BL/6 B cells; conditions: C57BL/6, APC-labeled tetramer
Description: as §1, §2, §3, §4

[3] = system: total naïve splenic BALB/c B cells; conditions: APC-labeled tetramer
Description: as §1, §2, §3, §4

[4] = system: mAb 13H11 and mAb 2F5 on beads; conditions: flow cytometry, mAbs 13H11 and 2F5 on beads
Description: Antibody-coated beads. Carboxyl-polystyrene beads (3.0-3.4 μm) (Spherotech, Inc., Lake Forest, Ill.) were resuspended in 0.01 M sodium acetate buffer (pH 5.0) and reacted (20° C.×1 hr) with 1-ethyl-3-(3-dimethylaminopropyl) carbodiimide hydrochloride (EDC) (Sigma-Aldrich, Co., St. Louis, Mo.) at a ratio of 3.1 mg beads to 1 mg EDC. Beads were washed with sodium acetate buffer, resuspended in a minimal volume before adding purified mAb in the same buffer (ratio of 16 mg beads to 1 mg mAb), incubated (20° C.×2 hrs), then washed with sodium acetate buffer. Beads were resuspended at 5% in PBS containing 1% bovine serum albumin and 0.02% sodium azide.
Use of antibody-coated beads and cell lines for tetramer quality control. Tetramer stocks were diluted to twice the desired final concentration in PBS containing 1% BSA. An equal volume of beads or cells at 5×10^5 up to 2×10^6 per sample were mixed with tetramer and incubated (4° C.×30 min). Beads or cells were washed with PBS+1% BSA before being fixed in 2% methanol-free formaldehyde (Polysciences, Inc, Warrington, Pa.) in PBS. Samples were stored at 4° C. prior to being analyzed by flow cytometry (BD LSR II, Becton Dickinson, Mountain View, Calif.). Data were analyzed using FlowJo (Tree Star, Ashland, Oreg.). For tetramer titration 40-80 ng tetramer per 10^6 cells/beads was serially diluted over 8-12 points. Optimal concentrations determined by this method were used for subsequent experiments. For cold competition experiments the incubation step was performed by staining with 10-fold excess unlabeled tetramer (4° C.×30 min) prior to the addition of APC-labeled tetramer. For cell dilution experiments, a mixture of mAb cell lines was made and then 1:10 serial dilutions of cells prepared. For cross competition experiments, mixtures of cells were prepared and then stained singly with anti-IgG reagents or tetramer, or the cells were doubly stained with both reagents either sequentially or concurrently.

[5] = system: B220+ BALB/c splenocytes; conditions: pre-incubation with 10-fold molar excess unlabeled tetramer, 30 min on ice
Description: as §3

Biotin-GGGQQEKNEQELLELDKWASLWN [gp41 MPER tetramer]
% of subset binding tetramer ± SEM ([1]; C57BL/6, Bone marrow, Immature): 0.30 ± 0.04%
% of subset binding tetramer ± SEM ([1]; C57BL/6, Bone marrow, MF): 0.15 ± 0.06%
% of subset binding tetramer ± SEM ([1]; C57BL/6, Bone marrow, Pro/pre): 0.05 ± 0.01%
% of subset binding tetramer ± SEM ([1]; C57BL/6, Bone marrow, T1): 0.62 ± 0.10^d %
% of subset binding tetramer ± SEM ([1]; C57BL/6, Bone marrow, T2): 0.54 ± 0.09^d %
% of subset binding tetramer ± SEM ([1]; C57BL/6, Peritoneum, B1a): 0.52 ± 0.08%
% of subset binding tetramer ± SEM ([1]; C57BL/6, Peritoneum, B1b): 0.50 ± 0.13%
% of subset binding tetramer ± SEM ([1]; C57BL/6, Peritoneum, B2): 0.32 ± 0.09%
% of subset binding tetramer ± SEM ([1]; C57BL/6, Spleen, MF): 0.16 ± 0.02%
% of subset binding tetramer ± SEM ([1]; C57BL/6, Spleen, MZ): 0.25 ± 0.04%
% of subset binding tetramer ± SEM ([1]; C57BL/6, Spleen, T1): 0.24 ± 0.06%
% of subset binding tetramer ± SEM ([1]; C57BL/6, Spleen, T2): 0.21 ± 0.07%
fraction of total naïve splenic B cell repertoire binding tetramer [2]: < 0.3%
fraction of total naïve splenic B cell repertoire binding tetramer [3]: > 5%
binding to antibody-coated beads [4]: bound to both the non-neutralizing mAb 13H11 and the neutralizing anti-gp41 mAb 2F5
inhibition of binding of APC-labeled gp41 MPER-tetramer [5]: > 90%
